6 compounds from patent US20210122730A1, “GLUCOCORTICOID RECEPTOR MODULATORS” (ORIC Pharmaceuticals, Inc., priority 2017, published 2021) can be followed below.

pIC50: −log10 of the molar value.

For assay [1], the target named is T1, PR (Homo sapiens, UniProt P06401).
T1 construct: expressed in transfected cells; host or cells: CHO-K1
T1 sequence (P06401 1-933): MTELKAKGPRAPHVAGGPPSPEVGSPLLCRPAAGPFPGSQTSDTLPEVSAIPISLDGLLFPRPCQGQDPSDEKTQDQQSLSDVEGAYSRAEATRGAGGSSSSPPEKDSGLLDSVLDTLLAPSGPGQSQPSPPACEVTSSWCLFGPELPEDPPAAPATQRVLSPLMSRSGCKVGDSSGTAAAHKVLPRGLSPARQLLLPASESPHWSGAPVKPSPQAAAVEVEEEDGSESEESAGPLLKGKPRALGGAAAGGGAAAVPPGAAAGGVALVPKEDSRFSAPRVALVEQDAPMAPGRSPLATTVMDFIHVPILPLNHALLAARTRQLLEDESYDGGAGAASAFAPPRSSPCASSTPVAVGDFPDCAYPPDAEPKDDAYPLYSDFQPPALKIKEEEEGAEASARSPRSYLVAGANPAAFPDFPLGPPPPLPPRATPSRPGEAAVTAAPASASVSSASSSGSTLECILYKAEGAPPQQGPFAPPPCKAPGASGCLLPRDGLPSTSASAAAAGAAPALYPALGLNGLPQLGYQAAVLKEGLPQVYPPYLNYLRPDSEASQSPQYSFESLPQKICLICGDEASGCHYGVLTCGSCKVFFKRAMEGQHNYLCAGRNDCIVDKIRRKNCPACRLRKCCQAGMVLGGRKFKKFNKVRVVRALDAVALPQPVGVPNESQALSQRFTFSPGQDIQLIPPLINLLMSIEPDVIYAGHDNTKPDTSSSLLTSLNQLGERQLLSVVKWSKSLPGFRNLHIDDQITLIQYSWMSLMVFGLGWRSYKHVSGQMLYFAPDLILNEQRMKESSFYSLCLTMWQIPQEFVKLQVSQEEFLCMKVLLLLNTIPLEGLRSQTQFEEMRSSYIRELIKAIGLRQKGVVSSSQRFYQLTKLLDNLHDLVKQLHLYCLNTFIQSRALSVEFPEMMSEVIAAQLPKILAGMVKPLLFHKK
Put plainly: In Vitro PR Luciferase Reporter Assay (antagonist mode, CHO-K1-PR-MMTV-Luc reporter cells). The assay is classed as cell-based. The conditions noted are these: antagonist assay with 20 nM Progesterone, 18-24 hours, read-out: PR antagonism IC50. The source says:
Example C: In Vitro PR Luciferase Reporter Assay
Cell Line: CHO-KI-PR-MMTV-Luc reporter cells
Culture Media: DMEM (with phenol red)+1000FBS
Assay Media: DMEM (without phenol red)+1000CSS
Culture CHO-Kl-PR-MMTV-Luc reporter cells in 15 cm plates in Culture Media at conditions less than 90% confluence.
Prepared 200×DMSO 1:8 serial dilutions of control and test compounds in 96-well non-sterile V bottom plate in DMSO, 8 serial dilutions for each compound.
Prepared 5× Assay Media diluted compound serial dilutions in 96-well non-sterile V bottom plate: Add 97.5 μL/well of Assay Media into 96-well then add 2.5 μl of 200× concentration of compounds and mix well.
Added compounds: 5 μl of assay media diluted compounds were added to appropriate wells and followed a quick spin (1000 rpm, 10 sec) to bring media and cells to the bottom of plate. The plates were covered with SealMate film to avoid evaporation and placed in 37° C. incubator for approximately 18-24 hours.
Read plates: Equilibrated appropriate amount of Promega One-Glo luciferase reagent to room temperature. Removed the plates from incubator and added 25 μL of One-Glo luciferase reagent/well by multiple channel pipette and read the plates with Tecan F500 luminometer within 3 minutes.
The ability of exemplary compounds disclosed herein to inhibit PR activity was quantified and the respective IC50 value was determined. Table 4 provides the cellular IC50 values of exemplary compounds disclosed herein.
On the technique in general: In a reporter assay the amount or activity of a reporter protein is the signal.

The target in assay [2] is T2, GR (Homo sapiens, UniProt P04150).
T2 construct: expressed in transfected cells; host or cells: CHO-K1
T2 sequence (P04150 1-777): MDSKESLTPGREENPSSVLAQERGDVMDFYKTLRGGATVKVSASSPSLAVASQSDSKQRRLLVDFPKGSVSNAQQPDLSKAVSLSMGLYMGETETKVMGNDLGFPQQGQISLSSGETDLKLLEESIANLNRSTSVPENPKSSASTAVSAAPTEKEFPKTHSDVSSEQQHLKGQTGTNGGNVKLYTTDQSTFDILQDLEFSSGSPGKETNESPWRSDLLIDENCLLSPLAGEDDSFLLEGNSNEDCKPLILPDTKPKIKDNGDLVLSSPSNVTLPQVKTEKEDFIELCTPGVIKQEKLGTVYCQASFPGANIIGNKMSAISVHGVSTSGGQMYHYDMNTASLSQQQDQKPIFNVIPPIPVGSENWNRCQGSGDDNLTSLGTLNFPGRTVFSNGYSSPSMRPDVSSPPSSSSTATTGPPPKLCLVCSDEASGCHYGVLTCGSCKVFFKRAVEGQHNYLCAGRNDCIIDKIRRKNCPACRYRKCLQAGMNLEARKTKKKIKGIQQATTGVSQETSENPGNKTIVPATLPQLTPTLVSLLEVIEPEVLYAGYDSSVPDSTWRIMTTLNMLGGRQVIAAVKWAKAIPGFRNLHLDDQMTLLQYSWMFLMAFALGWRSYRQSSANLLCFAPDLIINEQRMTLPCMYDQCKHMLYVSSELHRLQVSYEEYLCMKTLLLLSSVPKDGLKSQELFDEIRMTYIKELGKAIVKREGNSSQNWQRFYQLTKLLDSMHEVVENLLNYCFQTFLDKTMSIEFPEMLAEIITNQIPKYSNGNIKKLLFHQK
Put plainly: In Vitro GR Luciferase Reporter Assay (antagonist mode, CHO-K1-GR-MMTV-Luc reporter cells). The note with it: antagonist mode, 10 nM Dexamethasone. Type of assay: cell-based. In a few lines: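 Antagonist mode: compounds (8 serial 1:5 dilutions) added to GR-MMTV-luciferase CHO-K1 reporter cells co-exposed to 10 nM dexamethasone final, in phenol red-free DMEM plus 10% CSS. After roughly 18-24 h at 37° C, OneGlo luminescence read and IC50 calculated.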

By pIC50 is commonly meant the negative decadic logarithm of the IC50, by convention in mol/L. Consider `O=C(c1cc(Cl)ccn1)[C@]12Cc3cnn(-c4ccc(F)cc4)c3C=C1CC[C@H](N(C1CC1)S(=O)(=O)c1ccc(F)cc1)C2` [Example 232, N-((4aS,6S)-4a-(4-chloropicolinoyl)-1-(4-fluorophenyl)-4,4a,5,6,7,8-hexahydro-1H-benzo[f]indazol-6-yl)-N-cyclopropyl-4-fluorobenzenesulfonamide], for which the figures for the pIC50 in assay [1] and in assay [2] were under 5.30 and at least 7.00, respectively.

Regarding `Cn1cc(S(=O)(=O)N(CC(C)(C)O)[C@H]2CCC3=Cc4c(cnn4-c4ccc(F)cc4)C[C@]3(C(=O)c3cc(F)ccn3)C2)cn1` [Example 248, N-((4aS,6S)-1-(4-fluorophenyl)-4a-(4-fluoropicolinoyl)-4,4a,5,6,7,8-hexahydro-1H-benzo[f]indazol-6-yl)-N-(2-hydroxy-2-methylpropyl)-1-methyl-1H-pyrazole-4-sulfonamide], the pIC50 in assay [1] was under 5.30; in assay [2] it was at least 7.00.

Regarding `Cn1ccc(S(=O)(=O)N(C2CC(F)(F)C2)[C@H]2CCC3=Cc4c(cnn4-c4ccc(F)cc4)C[C@]3(C(=O)c3ncc(C(F)(F)F)s3)C2)n1` [Example 270, N-(3,3-difluorocyclobutyl)-N-((4aS,6S)-1-(4-fluorophenyl)-4a-(5-(trifluoromethyl)thiazole-2-carbonyl)-4,4a,5,6,7,8-hexahydro-1H-benzo[f]indazol-6-yl)-1-methyl-1H-pyrazole-3-sulfonamide], the results for the pIC50 in assay [1] and in assay [2] were 5.44 and at least 7.00, respectively.

`Cn1ccc(S(=O)(=O)N([C@H]2CCC3=Cc4c(cnn4-c4ccc(F)cc4)C[C@]3(C(=O)c3ncc(C(F)(F)F)s3)C2)[C@H]2C[C@@](C)(O)C2)n1` [Example 277, N-((4aS,6S)-1-(4-fluorophenyl)-4a-(5-(trifluoromethyl)thiazole-2-carbonyl)-4,4a,5,6,7,8-hexahydro-1H-benzo[f]indazol-6-yl)-N-((1s,3R)-3-hydroxy-3-methylcyclobutyl)-1-methyl-1H-pyrazole-3-sulfonamide]: the pIC50 was under 5.30 in assay [1] and at least 7.00 in assay [2].

As for `Cn1cnc(S(=O)(=O)N(C2CC2)[C@H]2CCC3=Cc4c(cnn4-c4ccc(F)cc4)C[C@]3(C(=O)c3ncc(C(F)(F)F)s3)C2)n1` [Example 305, N-cyclopropyl-N-((4aS,6S)-1-(4-fluorophenyl)-4a-(5-(trifluoromethyl)thiazole-2-carbonyl)-4,4a,5,6,7,8-hexahydro-1H-benzo[f]indazol-6-yl)-1-methyl-1H-1,2,4-triazole-3-sulfonamide], the pIC50 is under 5.30 in assay [1] and at least 7.00 in assay [2].

Regarding `Cn1cnc(S(=O)(=O)N(C2CC2)[C@H]2CCC3=Cc4c(cnn4-c4ccc(F)cc4)C[C@]3(C(=O)c3cc(C(F)(F)F)ccn3)C2)n1` [Example 306, N-cyclopropyl-N-((4aS,6S)-1-(4-fluorophenyl)-4a-(4-(trifluoromethyl)picolinoyl)-4,4a,5,6,7,8-hexahydro-1H-benzo[f]indazol-6-yl)-1-methyl-1H-1,2,4-triazole-3-sulfonamide], the values for the pIC50 in assay [1] and in assay [2] were under 5.30 and at least 7.00, respectively.
